Test [1] has as its target T1, dopamine transporter (DAT) (Homo sapiens, UniProt Q01959).
T1 construct: gene SLC6A3
The test is described as follows: [3H]dopamine uptake inhibition in HEK293 cells stably expressing human DAT. The class given is cell-based.

Test [2] concerns the target T2, norepinephrine transporter (NET) (Homo sapiens, UniProt P23975).
T2 construct: gene SLC6A2
The test is described as follows: [3H]MPP+ uptake inhibition in HEK293 cells stably expressing human NET. The class given is cell-based.

Data on one molecule can be found in PMC4761905, “A Novel Heterocyclic Compound CE-104 Enhances Spatial Working Memory in the Radial Arm Maze in Rats and Modulates the Dopaminergic System” (Frontiers in Behavioral Neuroscience, 2016).

T2 sequence (P23975 whole entry): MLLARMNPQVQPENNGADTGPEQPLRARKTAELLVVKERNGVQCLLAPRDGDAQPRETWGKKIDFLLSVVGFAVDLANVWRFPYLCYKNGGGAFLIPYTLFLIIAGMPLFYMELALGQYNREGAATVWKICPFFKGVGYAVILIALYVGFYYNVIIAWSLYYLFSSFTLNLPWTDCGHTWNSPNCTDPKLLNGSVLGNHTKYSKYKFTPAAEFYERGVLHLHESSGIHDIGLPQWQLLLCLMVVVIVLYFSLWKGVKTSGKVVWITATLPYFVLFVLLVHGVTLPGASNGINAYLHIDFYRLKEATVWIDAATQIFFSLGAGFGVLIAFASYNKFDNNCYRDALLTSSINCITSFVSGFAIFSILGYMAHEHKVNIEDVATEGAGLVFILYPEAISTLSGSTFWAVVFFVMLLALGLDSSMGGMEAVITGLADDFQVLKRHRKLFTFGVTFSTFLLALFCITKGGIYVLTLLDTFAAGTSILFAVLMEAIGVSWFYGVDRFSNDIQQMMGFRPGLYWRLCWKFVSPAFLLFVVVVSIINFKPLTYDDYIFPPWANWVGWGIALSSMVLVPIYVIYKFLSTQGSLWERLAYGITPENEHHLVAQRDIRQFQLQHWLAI
T1 sequence (Q01959 whole entry): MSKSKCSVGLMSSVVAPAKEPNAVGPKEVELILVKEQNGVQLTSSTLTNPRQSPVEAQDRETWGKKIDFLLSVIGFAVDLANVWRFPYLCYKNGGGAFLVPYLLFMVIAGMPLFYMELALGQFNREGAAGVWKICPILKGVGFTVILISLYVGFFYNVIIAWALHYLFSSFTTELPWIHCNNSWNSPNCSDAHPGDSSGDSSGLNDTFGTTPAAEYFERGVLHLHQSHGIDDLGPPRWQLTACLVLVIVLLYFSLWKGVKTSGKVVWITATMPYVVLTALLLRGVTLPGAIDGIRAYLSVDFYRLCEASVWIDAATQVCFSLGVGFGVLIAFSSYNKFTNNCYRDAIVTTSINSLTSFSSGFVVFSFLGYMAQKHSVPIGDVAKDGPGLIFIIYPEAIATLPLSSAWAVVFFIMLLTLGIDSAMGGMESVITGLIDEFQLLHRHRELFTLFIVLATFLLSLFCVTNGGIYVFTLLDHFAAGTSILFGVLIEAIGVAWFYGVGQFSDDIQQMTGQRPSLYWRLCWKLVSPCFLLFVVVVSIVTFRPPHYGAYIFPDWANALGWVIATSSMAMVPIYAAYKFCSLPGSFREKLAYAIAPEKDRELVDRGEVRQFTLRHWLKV

In general, IC50 refers to the concentration at which inhibition is half-maximal. A higher IC50 goes with weaker potency. `Cc1csc(C[S+]([O-])C(c2ccccc2)c2ccccc2)n1` (racemic) [CE-104, 2-(benzhydrylsulfinylmethyl)-4-methylthiazole]: the IC50 is 27.9 µM in test [1] and 160 µM in test [2].
